From patent US11083732B2, “Use of negative modulators of GABA receptors containing alpha5 subunits as fast acting antidepressants” (University of Maryland, Baltimore, priority 2014, dated 2021)
“Also recorded” adds a separate entry of the source.

How the values were obtained:
[1] = system: rats subjected to chronic unpredictable stress; assay: Social interaction test (SIT) after chronic unpredictable stress (CUS); assay type: in vivo, rat
Method: (§1) Chronic unpredictable stress (CUS). Male Sprague-Dawley rats (4-5 weeks-old; Harlan Laboratories) were randomly divided into control and CUS groups. Rats in the CUS group were individually housed. CUS animals were treated with two mild stressors every day for 5-6 weeks during their light phase (Willner et al., 1987). The stressors were randomly cycled to enhance unpredictability. The stressors were: forced swim, in which rats were placed in a basin containing cold water for 5 minutes; strobe lighting, in otherwise total darkness for 30 minutes; restraint, during which rats were put into appropriately sized restraint tubes for 30 minutes; exposure to white noise for 30 minutes; and food or water deprivation for 14 hours spanning the dark phase.
Social interaction test (SIT). […]
(§2) Each test consisted of a “target-absent” trial followed by a “target-present” trial. During testing, an individual test rat was placed in the center of the arena and, after 30s of adaptation, the rat's movements were recorded with the video camera for 2.5 minutes. […]
(§3) Results were quantified as the percentage of time spent in the “interaction zone” (the five grid squares immediately surrounding the plastic cage) as measured for both the “target-absent” and “target-present” trials. […]

[2] = system: rats subjected to chronic unpredictable stress; assay: Sucrose preference test (SPT) after chronic unpredictable stress (CUS); assay type: in vivo, rat; details: L-655,708 24 hours earlier
Method: Sucrose preference test. Rats are administered a sucrose preference test before chronic unpredictable stress or no stress. The left bar of the pairs (black) reflects CUS rats and the right bar of the pairs (white) reflects unstressed rats.
as §1
Sucrose preference test (SPT). Rats were given a choice between two bottles containing tap water or a 1% sucrose solution (Rygula et al., 2006). Testing was conducted overnight (16 hours), including the full duration of their dark phase. […] Sucrose preference was calculated as amount of the sucrose solution consumed as a percentage of the total amount of liquid consumed.

unstressed rats = assay: Sucrose preference and social interaction tests in unstressed rats; assay type: in vivo, rat; details: 24 hrs after injection
Method: Sucrose preference test (SPT). Rats were given a choice between two bottles containing tap water or a 1% sucrose solution (Rygula et al., 2006). Testing was conducted overnight (16 hours), including the full duration of their dark phase. Animals were first trained with both bottles while group-housed. For subsequent tests, including during the baseline period, animals were individually housed. Sucrose preference was calculated as amount of the sucrose solution consumed as a percentage of the total amount of liquid consumed.
Social interaction test (SIT). As described previously (Berton et al., 2006), rats were placed in a plastic enclosure (82×82 cm) with a 5×5 grid of squares (16.4×16.4 cm) visible underneath the clear plastic flooring. A small translucent perforated plastic box (20×16 cm) was placed against the center of one wall of the arena. […]
as §2, §3

[3] = system: str. pyramidale of area CA1 and NAc shell; assay: In vivo field potential recording of oscillatory activity; parameters: species or system rat
Method: A1. A 60 min period of continuous recording of spontaneous field potential activity is made under dim illumination. Rats are then injected with either L-665,708 or vehicle, and placed back in the tube for an additional 60-90 min of recording. Discrete fast Fourier transforms are made on 60s-long recording segments for preparation of spectrograms. Oscillation power (area under the curve) is integrated for different frequency bandwidths for power spectral density plots (Θ=3-7 Hz; α=8-12 Hz; β=13-29 Hz; γ=30-80 Hz) (Buhl et al., 1998; Raver et al., 2013). Just as with ketamine (e.g. Kittleberger et al., 2012; Lazarewicz et al., 2010; Hinman et al., 2013), in specific embodiments increases in power are observed by pairwise comparison of spectra before and after drug injection. Initial studies are consistent with this consideration (FIG. 2).
Electrophysiology in vivo. Tungsten microelectrodes (tip impedances=0.5M,Ω) are implanted stereotaxically in str. pyramidale of area CA 1, layer II of the EC, layer V of the medial PFC, or the shell of the NAc and secured to the skull with cement. After implantation, rats will be habituated to stay still under light restraint (a metal pole connecting the headstage to a rigid arm) in a narrow tube. On-going electrical activity will be recorded in the absence of anesthesia. Field potentials will be analyzed using Spike2 software.

[4] = system: chronically stressed rats; assay: Reversal of chronic stress-induced behavioral changes (SPT and SIT; CRS and CUS) overall; assay type: in vivo, rat
Description: Chronic restraint stress (CRS). Male Sprague Dawley rats (4-5 weeks-old; Harlan Laboratories) were placed in appropriately sized restraint tubes, highly restricting their movement for periods of four hours in a brightly lit lab, every day for ten days during the light phase of their diurnal cycle (Lim et al., 2012).
Chronic unpredictable stress (CUS). Male Sprague-Dawley rats (4-5 weeks-old; Harlan Laboratories) were randomly divided into control and CUS groups. Rats in the CUS group were individually housed. CUS animals were treated with two mild stressors every day for 5-6 weeks during their light phase (Willner et al., 1987). The stressors were randomly cycled to enhance unpredictability. […]
Sucrose preference test (SPT). […] Sucrose preference was calculated as amount of the sucrose solution consumed as a percentage of the total amount of liquid consumed. […]
Several hedonic behaviors in rodents are sensitive to chronic stress and are restored by chronic, but not acute, administration of SSRIs, providing one means to screen for potential antidepressant compounds. First, it was determined whether L-655,708 would rapidly (<24 hrs) restore normal hedonic behavior following chronic restraint stress (Watanabe et al., 1992; Lim et al., 2012), consistent with the rapid antidepressant-like actions of ketamine (Li et al., 2011). […]

[5] = target: GABAARs containing the alpha5 subunit (Homo sapiens, UniProt P18507+P31644); details: Atack et al., 2005; 2006; cited from earlier work
forebrain binding sites = details: 0.7 mg/kg i.p.; Atack et al., 2005; cited from earlier work

Chain of GABAARs containing the alpha5 subunit (P31644 32-462): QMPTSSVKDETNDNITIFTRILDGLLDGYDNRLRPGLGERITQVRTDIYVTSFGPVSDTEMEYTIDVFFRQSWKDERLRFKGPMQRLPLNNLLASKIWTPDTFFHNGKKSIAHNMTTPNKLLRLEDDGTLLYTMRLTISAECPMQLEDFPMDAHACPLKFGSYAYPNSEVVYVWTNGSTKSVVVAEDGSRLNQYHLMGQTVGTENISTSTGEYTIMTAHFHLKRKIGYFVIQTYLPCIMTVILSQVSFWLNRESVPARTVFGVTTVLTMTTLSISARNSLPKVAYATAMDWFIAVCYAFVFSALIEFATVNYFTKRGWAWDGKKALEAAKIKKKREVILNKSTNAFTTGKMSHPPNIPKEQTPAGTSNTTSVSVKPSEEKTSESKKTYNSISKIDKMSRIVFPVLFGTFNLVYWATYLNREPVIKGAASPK
Chain of GABAARs containing the alpha5 subunit (P18507 40-475): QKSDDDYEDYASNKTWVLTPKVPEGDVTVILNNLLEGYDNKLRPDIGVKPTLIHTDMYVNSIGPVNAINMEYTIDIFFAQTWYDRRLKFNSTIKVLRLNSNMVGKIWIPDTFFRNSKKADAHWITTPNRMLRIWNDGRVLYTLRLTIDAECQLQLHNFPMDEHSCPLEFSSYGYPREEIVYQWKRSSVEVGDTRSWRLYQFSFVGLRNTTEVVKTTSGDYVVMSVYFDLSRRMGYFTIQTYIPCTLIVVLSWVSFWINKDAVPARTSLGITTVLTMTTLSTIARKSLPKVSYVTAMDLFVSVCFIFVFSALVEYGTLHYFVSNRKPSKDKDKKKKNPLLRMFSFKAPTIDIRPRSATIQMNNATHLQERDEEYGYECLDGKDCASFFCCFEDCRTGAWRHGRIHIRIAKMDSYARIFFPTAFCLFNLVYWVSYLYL
Chain of GABAARs containing the alpha5 subunit (P28472 26-473 partner): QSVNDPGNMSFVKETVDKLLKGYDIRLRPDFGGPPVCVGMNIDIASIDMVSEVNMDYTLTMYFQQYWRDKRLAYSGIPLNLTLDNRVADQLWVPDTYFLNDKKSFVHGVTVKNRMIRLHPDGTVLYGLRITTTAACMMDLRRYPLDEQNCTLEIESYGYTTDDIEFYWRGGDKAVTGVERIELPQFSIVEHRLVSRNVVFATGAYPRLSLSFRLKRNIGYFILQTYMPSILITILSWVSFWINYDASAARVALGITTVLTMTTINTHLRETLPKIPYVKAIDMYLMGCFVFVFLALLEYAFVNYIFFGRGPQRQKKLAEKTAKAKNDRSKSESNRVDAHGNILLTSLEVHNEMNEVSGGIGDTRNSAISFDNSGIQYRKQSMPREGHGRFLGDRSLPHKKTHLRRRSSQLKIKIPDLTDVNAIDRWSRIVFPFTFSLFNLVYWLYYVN

Structure (SMILES): CCOC(=O)c1ncn2c1[C@@H]1CCCN1C(=O)c1cc(OC)ccc1-2 [L-655,708, ethyl (13aS)-7-methoxy-9-oxo-11, 12,13,13 a-terahydro-9H-imidazo[1,5-a]pyrrolo[2,1-c] [1,4]benzodiazepine-1-carboxylate]
- number of CUS rats in which social interaction was reversed ([1]; CUS 4 weeks plus one week, L-655,708 0.7 mg/kg i.p. 24 hrs earlier): 14 of 18
- social interaction ([1]; CUS rats, single injection of L-655,708 0.7 mg/kg i.p. 24 hrs earlier): restores the behavior; also recorded: reversed to levels that were not significantly different than pre-stress baseline
- sucrose preference [2]: restores the behavior; also recorded: restored sucrose preference
- social interaction (unstressed rats): no change
- sucrose preference (unstressed rats): no change
- persistence of increase in oscillatory activity ([3]; CA1 and NAc shell): persisted for more than one hour
- oscillatory activity (theta and beta frequency bands) ([3]; str. pyramidale of area CA1 and NAc shell, after injection): rapid increase
- time to reversal of chronic stress-induced depressive-like behavioral changes ([4]; CRS and CUS, 0.7 mg/kg i.p., model-independent): less than 24 hrs
- time to reversal of loss of sucrose preference and decrease in social interaction ([4]; single injection, l mg/kg intraperitoneally, CUS and CRS): ≤ 24 h
- selectivity for GABAARs containing the alpha5 subunit [5]: 10-100 fold
- occupancy of forebrain binding sites (forebrain binding sites): about 70%
